The OligoGym collection
After the bases stand the sugars from the 5' end (letter, count) and the backbone: PS all phosphorothioate, else s phosphorothioate and o phosphodiester by linkage. Methylation of C is not given here. l = locked nucleic acid (LNA); d = 2'-deoxy (DNA)

Molecular target: SNHG14
Conditions: ASO
[1] = Mouse Primary Neuronal Cell, 0.005 µM

Sequence | target mRNA inhibition (Human Neuronal Cell, 0.2 µM) | target mRNA inhibition (Human Neuronal Cell, 1 µM) | target mRNA inhibition (Human Neuronal Cell, 7.5 µM) | also measured
CTACTAAACATACACAT (sugars l3 d11 l3, PS) | 34% | 45% | – | –
ATTTACACTTAATTATACTT (sugars ldllddlddddddlllldll, PS) | – | – | 12% | –
TTGATTCAATTCCCTT (sugars l2 d10 l4, PS) | 67% | 72% | – | –
ACATCTCATACTTGCTT (sugars l2 d12 l3, PS) | – | – | – | target mRNA inhibition [1]: 96.9%
TACATCTCATACTTGCT (sugars l2 d11 l4, PS) | -18% | 2% | – | target mRNA inhibition (Human Neuronal Cell, 5 µM): 18%; target mRNA inhibition [1]: 95%
TTATAGCCATTCTATCT (sugars ldlldddddddldddll, PS) | – | – | 43% | –
ATCTGATCTCACACAT (sugars l3 d10 l3, PS) | 22% | 40% | – | –
ATCATTCTCAACAATTAA (sugars l4 d8 l1 d1 l4, PS) | – | – | 53% | –
GCACATTCTTTCTATAC (sugars ldlldddddddlddlll, PS) | – | – | 51% | –
CCAGCATATTATATAC (sugars l3 d10 l3, PS) | 27% | 23% | – | –
TTCTACTATACTTTCCTCT (sugars ldddldddddddddlddll, PS) | – | – | 57% | –
TGAAAATCTCAACTACCAT (sugars l1 d11 l1 d2 l4, PS) | – | – | 24% | –
TACACTTAATTATACTTCCA (sugars ldlddllddddddlddddll, PS) | – | – | 59% | –
ATAACATTACTCTTAACA (sugars l3 d12 l3, PS) | 22% | 40% | – | –
TTCTGTATACACCATCC (sugars ldddldddddddldlll, PS) | – | – | 58% | –
TCTCAGCTTCTTCAAAT (sugars l2 d12 l3, PS) | 26% | 23% | – | –
CAACATTATTAACCACCTTA (sugars llddlddddddddddldlll, PS) | – | – | 47% | –
CATTTCATATTACTAACT (sugars l3 d12 l3, PS) | 10% | 18% | – | –
CTATGTTAATACTTTC (sugars l4 d10 l2, PS) | 26% | 31% | – | –
TTCCAGCTTATTTACCT (sugars l3 d12 l2, PS) | 41% | 26% | – | –
TATACCTTTCTTTAACCCTT (sugars ldddddldddddddddldll, PS) | – | – | 66% | –
TGTACTTACACATCTA (sugars l3 d10 l3, PS) | 42% | 34% | – | –
AAAGATCATTCTCAACAA (sugars lddlldddddddldllll, PS) | – | – | 66% | –

Sequence | target mRNA inhibition (Human Neuronal Cell, 0.2 µM) | target mRNA inhibition (Human Neuronal Cell, 1 µM) | target mRNA inhibition (Human Neuronal Cell, 7.5 µM) | also measured
TTATAGCCATTCTATCT (sugars lllddddddddldldll, PS) | – | – | 44% | –
TTTATCAATATCTTCTCAC (sugars lllddldddddddllddll, PS) | – | – | 54% | –
TTTCCATTTATTTCCATTT (sugars l2 d2 l2 d11 l2, PS) | – | – | 59% | –
CCAAACTGTCTTCTAAT (sugars l2 d11 l4, PS) | 23% | 26% | – | –
AATCTCAACTACCATT (sugars l4 d10 l2, PS) | 60% | 66% | – | –
CAGCTATTCAATAAAC (sugars l4 d10 l2, PS) | 8% | 7% | – | –
TACTCTGCAATACACCA (sugars l2 d10 l2 d1 l2, PS) | – | – | 60% | –
TTACCTACATCTCATACTT (sugars l2 d15 l2, PS) | -5% | -7% | – | target mRNA inhibition (Human Neuronal Cell, 5 µM): 7%; target mRNA inhibition [1]: 79%
GTTTCCATCTACTATTAAT (sugars ldldllddddddddddlll, PS) | – | – | 59% | –
TTTTAACCAGAGTGGCATCC (sugars l2 d16 l2, PS) | – | – | 59% | –
TTATAGCCATTCTATCT (sugars l1 d1 l2 d11 l2, PS) | – | – | 66% | –
TTCTGTATACACCATCC (sugars l1 d3 l1 d10 l2, PS) | – | – | 50% | –
TCTTTGACATTCCATCTC (sugars l4 d12 l2, PS) | 49% | 56% | – | –
ATCCTGATAATTAACT (sugars l4 d10 l2, PS) | -8% | 5% | – | –
CAACATTATTAACCACCTT (sugars l2 d10 l2 d3 l2, PS) | – | – | 43% | –
TTTTTTCTTACTATCTTCAA (sugars lldldddddddddddldlll, PS) | – | – | 51% | –
AGATCATTCTCAACAATT (sugars ldllllddddddldddll, PS) | – | – | 48% | –
CATATTGAACCAATTC (sugars l4 d10 l2, PS) | 51% | 67% | – | –
AGTTCTACTATACTTTCC (sugars ldlddddddddddlddll, PS) | – | – | 61% | –
AATTATTTATACACCATCAT (sugars ldddldlddddddldddlll, PS) | – | – | 67% | –
TTATAGCCATTCTATCT (sugars lldddddddddldldll, PS) | – | – | 56% | –
TACACTTAATTATACTTCCA (sugars lldldlddddddddddddll, PS) | – | – | 60% | –
TTATAGCCATTCTATCT (sugars l2 d10 l2 d1 l2, PS) | – | – | 56% | –

Sequence | target mRNA inhibition (Human Neuronal Cell, 0.2 µM) | target mRNA inhibition (Human Neuronal Cell, 1 µM) | target mRNA inhibition (Human Neuronal Cell, 7.5 µM) | also measured
ATATCCCTTGATTATCC (sugars l3 d11 l3, PS) | 16% | 18% | – | –
AGCAACATTATTAACCACC (sugars lddldlddddddldddlll, PS) | – | – | 52% | –
CTGTTTATACCCTTTCCA (sugars l1 d1 l1 d13 l2, PS) | – | – | 50% | –
AACCCATTTCTAACAT (sugars l4 d10 l2, PS) | 35% | 56% | – | –
ACCTTAAGTAACATTT (sugars l4 d10 l2, PS) | 36% | 44% | – | –
TACTCTGCAATACACC (sugars l2 d12 l2, PS) | – | – | 59% | –
AAATCTCAACTACCATTTTT (sugars ldddlddddddddldlllll, PS) | – | – | 46% | –
CAACATTATTAACCACCTT (sugars l1 d2 l1 d12 l3, PS) | – | – | 53% | –
TTTTATACCTTTCTTTAACC (sugars l1 d1 l2 d14 l2, PS) | – | – | 57% | –
TTTATCAATATCTTCTCACT (sugars lddddlddddddddddldll, PS) | – | – | 68% | –
AAAATCTCAACTACCATTT (sugars l6 d7 l2 d2 l2, PS) | – | – | 41% | –
CTGTTTATACCCTTTCCA (sugars l1 d2 l1 d12 l2, PS) | – | – | 56% | –
TATACACCATCATTATA (sugars l4 d11 l2, PS) | 41% | 60% | – | –
CATTATTAACCACCTT (sugars l2 d10 l4, PS) | 54% | 59% | – | –
GCAACATTATTAACCACCT (sugars ldlddddddddddddldll, PS) | – | – | 58% | –
GATCATTCTCAACAATT (sugars l1 d1 l3 d7 l5, PS) | – | – | 22% | –
TCCATTTATTTCCATTTATT (sugars l2 d11 l2 d3 l2, PS) | – | – | 58% | –
TTTATACCTTTCTTTAACCC (sugars l2 d1 l1 d14 l2, PS) | – | – | 50% | –
AAAATCTCAACTACCATTTT (sugars ldlddlddddddddldllll, PS) | – | – | 28% | –
ATTTTTTTCTTACTATCTTC (sugars lddddlddddddddldldll, PS) | – | – | 63% | –
CCTTCCCTTTGATAAC (sugars l3 d11 l2, PS) | 28% | 55% | – | –
TTCAGCTTTTAACCAGAGTG (sugars l2 d15 l3, PS) | – | – | 73% | –
TACTCTGCAATACACCA (sugars l1 d10 l1 d3 l2, PS) | – | – | 59% | –

Sequence | target mRNA inhibition (Human Neuronal Cell, 0.2 µM) | target mRNA inhibition (Human Neuronal Cell, 1 µM) | target mRNA inhibition (Human Neuronal Cell, 7.5 µM) | also measured
TACTCTGCAATACACC (sugars l1 d1 l1 d11 l2, PS) | – | – | 50% | –
ATCATTCTCAACAATTAA (sugars l1 d1 l4 d6 l6, PS) | – | – | 4% | –
GTTCTACTATACTTTCCT (sugars l1 d4 l1 d9 l3, PS) | – | – | 57% | –
TTACACTTAATTATACTTCC (sugars ldldldldddddddddldll, PS) | – | – | 65% | –
ATCATTCTCAACAATTAAA (sugars l5 d8 l2 d2 l2, PS) | – | – | 57% | –
ACATTATTATTTAACCT (sugars l3 d11 l3, PS) | 6% | 17% | – | –
GCAACATTATTAACCACCT (sugars lldddlddddddlddddll, PS) | – | – | 45% | –
AAAATTATTTATACACCATC (sugars llldldldddddddllldll, PS) | – | – | 56% | –
TTATAGCCATTCTATCT (sugars ldldddddddddldlll, PS) | – | – | 53% | –
GCACATTCTTTCTATAC (sugars ldlllddddddllddll, PS) | – | – | 34% | –
TTTTTTCTTACTATCTTCAA (sugars llldddlddddddddlddll, PS) | – | – | 58% | –
TTATAGCCATTCTATCT (sugars ldlldddddddlddlll, PS) | – | – | 21% | –
AGCAACATTATTAACCACC (sugars ldldlddddddddlddlll, PS) | – | – | 53% | –
TTTATACCTTTCTTTAACCC (sugars l1 d14 l2 d1 l2, PS) | – | – | 63% | –
GCACATTCTTTCTATAC (sugars l2 d9 l1 d3 l2, PS) | – | – | 48% | –
CCATTCAATGATCACT (sugars l2 d10 l4, PS) | 52% | 45% | – | –
CAACTCTCACTGTAACT (sugars l4 d11 l2, PS) | 47% | 49% | – | –
TAAAATTATTTATACACCA (sugars l2 d3 l1 d7 l6, PS) | – | – | 47% | –
TTATTTCCATTTATTTTCA (sugars lddlldddddddldldlll, PS) | – | – | 69% | –
TGAAAATCTCAACTACCAT (sugars l1 d3 l2 d10 l3, PS) | – | – | 43% | –
ATTGATTCAATTCCCTT (sugars ldldldddddddlldll, PS) | – | – | 65% | –
